{"source": "patent US6602676B1", "about": "“Testing method” (Milk Development Council, priority 1999, dated 2003)", "tested_on": "cows with luteal P4 insufficiency", "assay": "Study II: pregnancy rate after P4 supplementation with CIDR on Day 5 post AI in cows with luteal P4 insufficiency", "format": "in vivo, Holstein-Friesian cows", "conditions": "mean milk P4 on Day 5 post AI 1 to 1.99 ng/ml; CIDR inserted Day 5 post AI for seven days", "procedure": "Milk samples for P4 assay and reproductive data were collected from British Friesian and Holstein-Friesian cows in seven commercial herds. The cows were housed in a free-stall system and fed rations to meet their production and maintenance requirements. Data on calving date, parity, AI date and pregnancy were recorded. For the preliminary study, milk samples were collected daily for P4 determination from Day 7 postpartum until 100 days of the next gestation. The sampling protocol for animals in Studies I and II was limited to three milk samples per animal on Days 0, 5 and 24 post AI. […]\nMilk P4 concentrations in an un-extracted aliquot of whole milk were measured using either radio immunoassay (RIA) as described by Lamming and Bulman (Lamming, G. E. and D. C. Bulman (1976) Br. Vet. J. 132: 507-517) and Bulman and Lamming (Bulman D. C. and G. E. Lamming (1978) J. Reprod. Fertil. 54: 447-458) or enzyme linked immunosorbent assay (ELISA) kit (Ridgeway Science Ltd., Gloucestershire, UK) as illustrated by Darwash et al. (Darwash A. O et al (1999b) Anim Sci. (in press)). All samples and quality controls (QC) were assayed in duplicate and the mean value of both readings were used to indicate milk P4 concentrations. […]\nFollowing determination of pregnancy, the accuracy of using milk P4 concentrations on Day 24 post AI to predict pregnancy rates was calculated. […]", "data": [{"molecule": "CC(=O)[C@H]1CC[C@H]2[C@@H]3CCC4=CC(=O)CC[C@]4(C)[C@H]3CC[C@]12C", "note": "[P4, progesterone]", "values": [{"measurement": "Pregnancy (%), treated", "value": 57.9, "unit": "%"}]}]}
